Publication PMC10657973 (Journal of Pharmaceutical Analysis, 2023)
Entries after “also recorded” stand apart in the source; their conditions may differ. Each block holds one compound with its values, some of them ahead of it.

Tests used:
OAT1 [1] = molecular target: T1, OAT1 (Homo sapiens, UniProt Q4U2R8); assay: Uptake of UTs in HEK293T-OAT1 cells; type: cell-based; conditions: 100 μM, 30 min; for uptake of HSA-bound UT in OAT1-overexpressing cells vs control cells / uptake of free UT in OAT1-overexpressing cells vs control cells: 37 °C; for uptake of HSA-bound UT in OAT1-overexpressing cells vs control cells: with HSA; for uptake of free UT in OAT1-overexpressing cells vs control cells: without HSA
T1 sequence (Q4U2R8 1-563): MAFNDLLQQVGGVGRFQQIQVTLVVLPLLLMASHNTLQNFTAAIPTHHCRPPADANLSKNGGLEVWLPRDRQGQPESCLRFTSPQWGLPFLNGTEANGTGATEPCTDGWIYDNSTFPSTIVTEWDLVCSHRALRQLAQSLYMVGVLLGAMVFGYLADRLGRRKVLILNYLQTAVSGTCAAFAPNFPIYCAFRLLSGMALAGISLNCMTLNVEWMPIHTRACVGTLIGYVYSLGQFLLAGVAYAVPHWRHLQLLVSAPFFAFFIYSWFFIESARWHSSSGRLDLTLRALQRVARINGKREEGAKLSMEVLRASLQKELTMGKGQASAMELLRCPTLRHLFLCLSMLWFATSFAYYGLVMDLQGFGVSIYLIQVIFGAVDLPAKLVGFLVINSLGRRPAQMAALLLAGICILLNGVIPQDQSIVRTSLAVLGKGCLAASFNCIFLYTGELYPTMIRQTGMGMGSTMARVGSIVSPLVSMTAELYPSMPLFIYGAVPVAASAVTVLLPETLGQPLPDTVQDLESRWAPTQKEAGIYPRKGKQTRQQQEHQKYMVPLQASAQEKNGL

OAT3 [2] = molecular target: T2, OAT3 (Homo sapiens, UniProt Q8TCC7); assay: Uptake of UTs in HEK293T-OAT3 cells; type: cell-based; conditions: 100 μM, 30 min; for uptake of HSA-bound UT in OAT3-overexpressing cells vs control cells / uptake of free UT in OAT3-overexpressing cells vs control cells: 37 °C; for uptake of HSA-bound UT in OAT3-overexpressing cells vs control cells: with HSA; for uptake of free UT in OAT3-overexpressing cells vs control cells: without HSA
T2 sequence (Q8TCC7 1-542): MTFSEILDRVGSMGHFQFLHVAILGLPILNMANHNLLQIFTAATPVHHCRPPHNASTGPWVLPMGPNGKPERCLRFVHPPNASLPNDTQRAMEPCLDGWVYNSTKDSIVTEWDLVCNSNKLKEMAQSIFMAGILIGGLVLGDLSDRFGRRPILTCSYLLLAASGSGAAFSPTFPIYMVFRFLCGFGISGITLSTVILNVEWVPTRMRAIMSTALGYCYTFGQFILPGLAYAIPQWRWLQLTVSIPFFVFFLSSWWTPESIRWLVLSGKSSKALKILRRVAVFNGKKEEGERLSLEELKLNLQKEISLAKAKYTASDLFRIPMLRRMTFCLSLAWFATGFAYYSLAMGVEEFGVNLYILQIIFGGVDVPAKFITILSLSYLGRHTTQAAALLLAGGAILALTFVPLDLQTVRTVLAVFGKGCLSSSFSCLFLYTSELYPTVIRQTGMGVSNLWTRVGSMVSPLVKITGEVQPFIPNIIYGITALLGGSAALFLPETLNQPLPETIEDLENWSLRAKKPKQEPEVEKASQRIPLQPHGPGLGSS

MRP4 [3] = assay: Intracellular accumulation of UTs in MRP4-overexpressing cells; type: cell-based, human; conditions: 100 μM, 30 min
OAT1 [4] = molecular target: T1, OAT1; assay: Transport kinetics of UTs in HEK293T-OAT1 cells; type: cell-based
P-gp = assay: Specificity: uptake in P-gp-overexpressing cells; type: cell-based; conditions: uptake in overexpressing cells vs control, 4 mM ATP
OAT4 = assay: Specificity: uptake in OAT4-overexpressing cells; type: cell-based
MRP2 [5] = assay: Accumulation of kynurenic acid in MRP2-overexpressing cells; type: cell-based; conditions: Fig. S15
rMRP4 [6] = type: in vivo, rats
rOAT1/3 = assay: rOAT1/3−/− rat experiment; type: in vivo, rats
rMRP4 [7] = type: in vivo, rats; remark: listed apart in the source
[8] = type: in vivo, rats
[9] = Correlation between biomarkers and cefmetazole pharmacokinetics in rats; type: in vivo
[10] = system: OAT1/3 and MRP4 double-transfected MDCK cells; conditions: 37 °C
rOATs = rOATs inhibition experiment
OAT3 [11] = molecular target: T2, OAT3; assay: Transport kinetics of UTs in HEK293T-OAT3 cells; type: cell-based; conditions: read-out: Km of OAT3-mediated uptake; HEK293T-OAT3, Michaelis-Menten
OCT2 = assay: Specificity: uptake in OCT2-overexpressing cells; type: cell-based; conditions: uptake in overexpressing cells vs control
MATE1 = assay: Specificity: uptake in MATE1-overexpressing cells; type: cell-based; conditions: uptake in overexpressing cells vs control, pH 8.0
MATE2-K = assay: Specificity: uptake in MATE2-K-overexpressing cells; type: cell-based; conditions: uptake in overexpressing cells vs control, pH 8.0
OAT2 = assay: Specificity: uptake in OAT2-overexpressing cells; type: cell-based; conditions: uptake in overexpressing cells vs control
OATP4C1 = assay: Specificity: uptake in OATP4C1-overexpressing cells; type: cell-based; conditions: uptake in overexpressing cells vs control
PEPT2 = assay: Specificity: uptake in PEPT2-overexpressing cells; type: cell-based; conditions: uptake in overexpressing cells vs control
URAT1 = assay: Specificity: uptake in URAT1-overexpressing cells; type: cell-based; conditions: uptake in overexpressing cells vs control
MRP2 [12] = conditions: read-out: affinity (Km) for MRP2; cited from earlier work
MRP4 [13] = conditions: read-out: affinity (Km) for MRP4; cited from earlier work

- uptake at 4 °C in OAT1-overexpressing cells vs control (OAT1 [1]): no significant difference
- uptake of HSA-bound UT in OAT1-overexpressing cells vs control cells (OAT1 [1]): dramatically increased
- uptake at 4 °C in OAT3-overexpressing cells vs control (OAT3 [2]): no significant difference
- uptake of HSA-bound UT in OAT3-overexpressing cells vs control cells (OAT3 [2]): dramatically increased
- uptake at 4 °C in MRP4-overexpressing cells vs control (MRP4 [3]): no significant difference
- linear uptake time (OAT1 [4]; HEK293T-OAT1/3 cells, 100 μM): 0 to 10 min
- transport mediated by P-gp (P-gp): not mediated
- transport mediated by OAT4 / uptake in OAT4-overexpressing cells vs control (OAT4): not mediated
- substrate of MRP2 (MRP2 [5]): potential substrate of MRP2
- levels in renal tissues in rats treated with MK-571 vs control (rMRP4 [6]; MK-571 5, 10, 20 mg/kg oral, 7 days): significantly increased
- renal clearance rate in rOAT1/3−/− rats vs WT (rOAT1/3; rat, in vivo): significantly decreased
- serum levels in rOAT1/3−/− rats vs WT (rOAT1/3; rat, in vivo): significantly increased
- efflux from hepatocytes into the blood after rMRP4−/− (rMRP4 [7]; Fig. S9): hindered
- renal clearance rate in rMRP4−/− rats vs WT (rMRP4 [7]; rat, in vivo): did not change significantly
- renal tissue concentration in rMRP4−/− rats vs WT (rMRP4 [7]; rat, in vivo): unaffected
- serum levels in rMRP4−/− rats vs WT (rMRP4 [7]; rat, in vivo): did not change significantly
- half-life ([8]; rat, urine, iv, 2 mg/kg): 3.7 ± 0.7 h
- rate of metabolism to (d4-)xanthurenic acid in vivo ([8]; rats, d5-kynurenic acid 2 mg/kg i.v.): < 12%
- plasma concentrations in rats treated with PROB ([9]; PROB 60 and 120 mg/kg 7 days, cefmetazole 100 mg/kg i.v.): increased
- correlation of cmax with cefmetazole ([9]; WT and rOAT1/3−/− rats): moderate
- plasma level in rOAT1/3−/− rats vs WT rats ([9]; rat, in vivo): markedly increased
- uptake at 37 °C in OAT3-MRP4 cells vs double control cells [10]: significantly increased
- serum levels in rats treated with PROB vs control (rOATs; PROB 30, 60, 120 mg/kg oral, 7 days): increased
SMILES: O=C(O)c1cc(=O)c2ccccc2[nH]1 [Kynurenic acid, kynurenic acid]
- uptake of free UT in OAT1-overexpressing cells vs control cells (OAT1 [1]): dramatically increased; also recorded: significantly higher
- uptake of free UT in OAT3-overexpressing cells vs control cells (OAT3 [2]): dramatically increased; also recorded: significantly higher

- uptake at 4 °C in OAT1-overexpressing cells vs control (OAT1 [1]): not significantly different
- uptake of HSA-bound UT in OAT1-overexpressing cells vs control cells (OAT1 [1]): dramatically increased
- uptake at 4 °C in OAT3-overexpressing cells vs control (OAT3 [2]): not significantly different
- uptake of HSA-bound UT in OAT3-overexpressing cells vs control cells (OAT3 [2]): dramatically increased
- uptake at 4 °C in MRP4-overexpressing cells vs control (MRP4 [3]): not significantly different
- Km (OAT1 [4]; read-out: Km of OAT1-mediated uptake, HEK293T-OAT1, Michaelis-Menten): 4260 µM
- Km (OAT3 [11]): 2980 µM
- transport mediated by OCT2 (OCT2): not mediated
- transport mediated by MATE1 (MATE1): not mediated
- transport mediated by MATE2-K (MATE2-K): not mediated
- transport mediated by OAT2 (OAT2): not mediated
- transport mediated by OATP4C1 (OATP4C1): not mediated
- transport mediated by P-gp (P-gp): not mediated
- transport mediated by PEPT2 (PEPT2): not mediated
- transport mediated by URAT1 (URAT1): not mediated
- transport mediated by OAT4 / uptake in OAT4-overexpressing cells vs control (OAT4): not mediated
- cumulative urinary excretion in rats treated with MK-571 vs control (rMRP4 [6]; MK-571 (CMPF effect at 20 mg/kg)): not affected
- cumulative excretion, WT rats (rOAT1/3; first value of the printed pair, taken as WT, 12-h urine): 16.16 ± 5.27
- cumulative excretion, rOAT1/3−/− rats (rOAT1/3; second value of the pair, taken as knockout, 12-h urine): 8.56 ± 3.43
- cumulative urinary excretion in rats treated with PROB vs control (rOATs; 12 h urine): no significant effects
- serum level in vivo (detectability by LC-MS/MS) (rOATs; rats / in vivo): below the detection limit
SMILES: O=C(O)CNC(=O)C=Cc1ccccc1 [N-(cinnamoyl)glycine]
- uptake of free UT in OAT1-overexpressing cells vs control cells (OAT1 [1]): dramatically increased; also recorded: significantly elevated
- uptake of free UT in OAT3-overexpressing cells vs control cells (OAT3 [2]): dramatically increased; also recorded: significantly elevated
- intracellular accumulation in MRP4-overexpressing cells vs control cells (MRP4 [3]; 37 °C, 4 mM ATP): significantly decreased; also recorded: markedly reduced

SMILES: Nc1ccc(C(=O)NCC(=O)O)cc1 [aminohippuric acid]
- Km (MRP2 [12]): 2000 µM
- Km (MRP4 [13]): 160 µM
